Legend:
IRAK4 = IRAK4 (Homo sapiens (Human), UniProt Q9NWZ3); assay: IRAK4 Inhibition Assay; format: biochemical; details: ATP 500 μM; IRAK4 0.6 nM
In short: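 Mobility-shift readout: phosphorylated and unphosphorylated fluorescent peptide (1.5 μM) resolved by electrophoresis after a 60 min room-temperature reaction stopped with EDTA. Reaction holds 0.6 nM IRAK4, 500 μM ATP and 1.6% DMSO in HEPES pH 7.2/MgCl2/Brij 35/DTT buffer; percent inhibition set against vehicle and no-enzyme controls.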

[1] = Caco-2 Permeability Assay; format: in vitro ADME; details: human, Caco-2, test compound 3 μM
Method: Caco-2 Permeability Assay
Thirteen to 27 days prior to assay, Caco-2 cells were seeded onto collagen-coated polycarbonate filter membranes in 24-well transwell plates at a density of 1.45×10^5 cells/cm^2, approximately 4.8×10^4 cells per well. The cells were grown in a culture medium consisting of DMEM supplemented with 10% fetal bovine serum, 10 mM HEPES, 1% nonessential amino acids, 2 mM L-glutamine, 100 U/mL penicillin-G, and 100 μg/mL streptomycin. The culture medium was replaced every 3 days and the cells were maintained at 37° C. in a 95% relative humidity and 5% CO2 atmosphere. The cells were evaluated for tight junction formation just prior to assay. The test compound was solubilized to 10 mM in 100% DMSO and diluted to 3 μM in assay buffer. Permeability studies were initiated by adding 200 μL assay buffer plus/minus compound to the apical transwell compartment and 600 μL assay buffer plus/minus compound to the basolateral compartment of the 24-well transwell low-binding cluster plate. For apical-to-basolateral (A to B) permeability (absorptive direction), buffer containing compound was placed in the apical compartment (donor wells), while buffer alone was placed in the corresponding basolateral compartments (receiver wells). For basolateral-to-apical (B to A) permeability (secretive direction), buffer containing compound was placed in the basolateral compartment (donor wells), while buffer alone was placed in the corresponding apical compartments (receiver wells). Transwells were then incubated for 2 hours at 37° C. in a 95% relative humidity and 5% CO2 atmosphere with gentle agitation. Following incubation, 100 μL was removed from each apical and basolateral compartment and transferred to 96-well low binding plates that had been previously loaded with 100 μL/well of acetonitrile containing 250 nM propranolol, 250 nM diclofenac, and 500 nM tolbutamide as internal standards. The samples were subsequently analyzed by LC-MS/MS to determine concentrations of compound.

[2] = system: Human whole blood stimulated with a TLR2 agonist (lipoteichoic acid), IL-6 levels; assay: IRAK4 Whole Blood Assay; format: cell-based; details: lipoteichoic acid 10 μg/mL
In short: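 ACD-A-anticoagulated human whole blood was preincubated with compounds for 60 min at 37 °C under 5% CO2. It was then stimulated with 10 μg/mL lipoteichoic acid (final) in RPMI for 5 h. IL-6 in plasma supernatants was measured by flow cytometry bead assay.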

IRAK4, sequence (Q9NWZ3 whole entry, species assumed): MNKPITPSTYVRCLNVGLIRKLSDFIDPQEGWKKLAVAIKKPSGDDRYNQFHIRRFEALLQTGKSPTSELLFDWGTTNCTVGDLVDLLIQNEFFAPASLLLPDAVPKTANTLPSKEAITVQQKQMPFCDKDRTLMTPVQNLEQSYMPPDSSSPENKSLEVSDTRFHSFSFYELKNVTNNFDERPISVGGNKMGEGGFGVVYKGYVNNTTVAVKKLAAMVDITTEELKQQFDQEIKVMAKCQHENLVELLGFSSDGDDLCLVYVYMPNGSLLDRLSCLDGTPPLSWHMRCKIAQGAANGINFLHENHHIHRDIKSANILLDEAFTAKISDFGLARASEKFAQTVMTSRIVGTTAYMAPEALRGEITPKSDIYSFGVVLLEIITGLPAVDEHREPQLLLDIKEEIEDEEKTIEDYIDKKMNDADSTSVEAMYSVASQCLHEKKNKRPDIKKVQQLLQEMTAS

Row | Structure (SMILES) | IC50 (IRAK4) | Papp at 2 h, 3 µM [1] | EC50 ([2]; Homo sapiens) | EC50 [2]
1 | CC(C)Nc1cc(-n2ncc3cc(C#N)cnc32)ncc1-c1cn(CC(=O)N2CCNCC2)nn1 [Example 192, 1-(4-(isopropylamino)-5-(1-(2-oxo-2-(piperazin-1-yl)ethyl)-1H-1,2,3-triazol-4-yl)pyridin-2-yl)-1H-pyrazolo[3,4-b]pyridine-5-carbonitrile] | 3 nM | < 1.5 ×10⁻⁶ cm/s | 150 nM | –
2 | CC(=O)N1CCC(F)(c2cc(-c3cnc(-n4ncc5cc(C#N)cnc54)cc3NC(C)C)on2)CC1 [Example 421, 1-(5-(3-(1-acetyl-4-fluoropiperidin-4-yl)isoxazol-5-yl)-4-(isopropylamino)pyridin-2-yl)-1H-pyrazolo[3,4-b]pyridine-5-carbonitrile] | 3 nM | 32.2 ×10⁻⁶ cm/s | 200 nM | –
3 | CCCc1cn(-c2cnc(-n3ncc4cc(C#N)c(N)nc43)cc2NC(C)C)nn1 [Example 280, 6-amino-1-(4-(isopropylamino)-5-(4-propyl-1H-1,2,3-triazol-1-yl)pyridin-2-yl)-1H-pyrazolo[3,4-b]pyridine-5-carbonitrile] | 3 nM | 27.6 ×10⁻⁶ cm/s | 230 nM | –
4 | CC(C)Nc1cc(-n2ncc3cc(C#N)cnc32)ncc1-c1cn(CC2CC2(F)F)nn1 (single isomer, unassigned) [Example 31, 1-(5-(1-((2,2-difluorocyclopropyl)methyl)-1H-1,2,3-triazol-4-yl)-4-(isopropylamino)pyridin-2-yl)-1H-pyrazolo[3,4-b]pyridine-5-carbonitrile] | 7 nM | 15.9 ×10⁻⁶ cm/s | – | 1970 nM
5 | CCCn1cc(-c2cnc(-n3ncc4cc(C#N)cnc43)cc2N[C@@H](C)CO)nn1 [Example 52, (S)-1-(4-((1-hydroxypropan-2-yl)amino)-5-(1-propyl-1H-1,2,3-triazol-4-yl)pyridin-2-yl)-1H-pyrazolo[3,4-b]pyridine-5-carbonitrile] | 3 nM | 3.4 ×10⁻⁶ cm/s | 430 nM | –
6 | CCCn1cc(-c2cnc(-n3cnc4cc(C#N)cnc43)cc2Nc2cnn(CC)c2)nn1 [Example 59] | – | 20 ×10⁻⁶ cm/s | – | –
7 | CCCn1cc(-c2cnc(-n3cnc4cc(C#N)cnc43)cc2NC(C)C)nn1 [Example 40, 3-(4-(isopropylamino)-5-(1-propyl-1H-1,2,3-triazol-4-yl)pyridin-2-yl)-3H-imidazo[4,5-b]pyridine-6-carbonitrile] | 3 nM | 27.8 ×10⁻⁶ cm/s | – | –
8 | CC(C)Nc1cc(-n2ncc3cc(C#N)cnc32)ncc1-c1cn([C@H]2CCNC[C@H]2O)nn1 [Example 177, 1-(5-(1-((3R,4S)-3-hydroxypiperidin-4-yl)-1H-1,2,3-triazol-4-yl)-4-(isopropylamino)pyridin-2-yl)-1H-pyrazolo[3,4-b]pyridine-5-carbonitrile] | 13 nM | < 1.5 ×10⁻⁶ cm/s | – | –
9 | N#Cc1cnc2c(cnn2-c2cc(NC3CC3)c(-c3cn([C@@H]4CNCC[C@H]4O)nn3)cn2)c1 (relative stereo) [Example 207, 1-(4-(cyclopropylamino)-5-(1-((trans)-4-hydroxypiperidin-3-yl)-1H-1,2,3-triazol-4-yl)pyridin-2-yl)-1H-pyrazolo[3,4-b]pyridine-5-carbonitrile] | – | < 1.5 ×10⁻⁶ cm/s | 1330 nM | –
10 | CC(C)Nc1cc(-n2ncc3cc(C#N)cnc32)ncc1-c1cn(C[C@@H](C)O)nn1 [Example 66, (R)-1-(5-(1-(2-hydroxypropyl)-1H-1,2,3-triazol-4-yl)-4-(isopropylamino)pyridin-2-yl)-1H-pyrazolo[3,4-b]pyridine-5-carbonitrile] | 16 nM | 5.9 ×10⁻⁶ cm/s | – | –
11 | COC(=O)NCC1CC(c2cnc(-n3ncc4cc(C#N)cnc43)cc2NC(C)C)=NO1 (single isomer, unassigned) [Example 436, Methyl ((3-(6-(5-cyano-1H-pyrazolo[3,4-b]pyridin-1-yl)-4-(isopropylamino)pyridin-3-yl)-4,5-dihydroisoxazol-5-yl)methyl)carbamate] | – | 31.9 ×10⁻⁶ cm/s | 290 nM | –
12 | CC(C)(O)CCc1cn(-c2cnc(-n3ncc4cc(C#N)cnc43)cc2NC2COC2)nn1 [Example 359, 1-(5-(4-(3-hydroxy-3-methylbutyl)-1H-1,2,3-triazol-1-yl)-4-(oxetan-3-ylamino)pyridin-2-yl)-1H-pyrazolo[3,4-b]pyridine-5-carbonitrile] | – | < 1.5 ×10⁻⁶ cm/s | 220 nM | –
13 | CC(C)(O)CCc1cn(-c2cnc(-n3ncc4cc(C#N)cnc43)cc2NC2CCC(F)CC2)nn1 (centres unmarked) [Example 374, 1-(4-(((1r,4r)-4-fluorocyclohexyl)amino)-5-(4-(3-hydroxy-3-methylbutyl)-1H-1,2,3-triazol-1-yl)pyridin-2-yl)-1H-pyrazolo[3,4-b]pyridine-5-carbonitrile] | – | 3.2 ×10⁻⁶ cm/s | 380 nM | –
14 | CC(C)Nc1cc(-n2ncc3cc(C#N)cnc32)ncc1-c1cn([C@@H]2CCCC[C@@]2(C)O)nn1 (relative stereo) [Example 64, 1-(5-(1-((1R,2R)-2-hydroxy-2-methylcyclohexyl)-1H-1,2,3-triazol-4-yl)-4-(isopropylamino)pyridin-2-yl)-1H-pyrazolo[3,4-b]pyridine-5-carbonitrile] | 5 nM | 14.8 ×10⁻⁶ cm/s | – | –
15 | CC(C)Nc1cc(-n2ncc3cc(C#N)cnc32)ncc1-n1cc(C2CCN(C(=O)CC(C)(C)O)CC2)nn1 [Example 360, 1-(5-(4-(1-(3-hydroxy-3-methylbutanoyl)piperidin-4-yl)-1H-1,2,3-triazol-1-yl)-4-(isopropylamino)pyridin-2-yl)-1H-pyrazolo[3,4-b]pyridine-5-carbonitrile] | – | 3.6 ×10⁻⁶ cm/s | 310 nM | –

Second part, the compound after the results:

Row | IC50 (IRAK4) | Papp at 2 h, 3 µM [1] | EC50 ([2]; Homo sapiens) | EC50 [2] | Structure (SMILES)
16 | – | 14.8 ×10⁻⁶ cm/s | 300 nM | – | CC(=O)NC1CCC(c2cc(-c3cnc(-n4ncc5cc(C#N)cnc54)cc3NC(C)C)on2)CC1 (centres unmarked) [Example 410, N-((1s,4s)-4-(5-(6-(5-cyano-1H-pyrazolo[3,4-b]pyridin-1-yl)-4-(isopropylamino)pyridin-3-yl)isoxazol-3-yl)cyclohexyl)acetamide]
17 | – | 26.9 ×10⁻⁶ cm/s | 430 nM | – | COC(=O)NC1CCC(c2cc(-c3cnc(-n4ncc5cc(C#N)cnc54)cc3NC(C)C)on2)CC1 (centres unmarked) [Example 411, methyl ((1s,4s)-4-(5-(6-(5-cyano-1H-pyrazolo[3,4-b]pyridin-1-yl)-4-(isopropylamino)pyridin-3-yl)isoxazol-3-yl)cyclohexyl)carbamate]
18 | – | 27.3 ×10⁻⁶ cm/s | 230 nM | – | CC(C)Nc1cc(-n2ncc3cc(C#N)cnc32)ncc1-c1cc(CC(C)(C)O)on1 [Example 438, 1-(5-(5-(2-hydroxy-2-methylpropyl)isoxazol-3-yl)-4-(isopropylamino)pyridin-2-yl)-1H-pyrazolo[3,4-b]pyridine-5-carbonitrile]
19 | 5 nM | 5.7 ×10⁻⁶ cm/s | – | – | CC(C)Nc1cc(-n2cnc3cc(C#N)cnc32)ncc1-c1cn(CCC(F)(F)F)nn1 [Example 42, 3-(4-(isopropylamino)-5-(1-(3,3,3-trifluoropropyl)-1H-1,2,3-triazol-4-yl)pyridin-2-yl)-3H-imidazo[4,5-b]pyridine-6-carbonitrile]
20 | – | < 1.5 ×10⁻⁶ cm/s | 270 nM | – | CCNC1CCC(c2cn(-c3cnc(-n4ncc5cc(C#N)cnc54)cc3NC(C)C)nn2)CC1 (centres unmarked) [Example 356, 1-(5-(4-((1s,4s)-4-(ethylamino)cyclohexyl)-1H-1,2,3-triazol-1-yl)-4-(isopropylamino)pyridin-2-yl)-1H-pyrazolo[3,4-b]pyridine-5-carbonitrile]
21 | 15 nM | 23.7 ×10⁻⁶ cm/s | – | – | CCCc1cn(-c2cnc(-n3cnc4cc(C#N)cnc43)cc2NC(C)C)nn1 [Example 278, 3-(4-(isopropylamino)-5-(4-propyl-1H-1,2,3-triazol-1-yl)pyridin-2-yl)-3H-imidazo[4,5-b]pyridine-6-carbonitrile]
22 | – | 17.9 ×10⁻⁶ cm/s | 270 nM | – | CC(C)Nc1cc(-n2ncc3cc(C#N)cnc32)ncc1-c1cn(C2CN(CC(F)F)C2)nn1 [Example 153]
23 | – | 2.4 ×10⁻⁶ cm/s | 490 nM | – | CC(C)Nc1cc(-n2ncc3cc(C#N)cnc32)ncc1-c1cn([C@@H]2CCNC[C@@H]2F)nn1 (relative stereo) [Example 209, 1-(5-(1-((cis)-3-fluoropiperidin-4-yl)-1H-1,2,3-triazol-4-yl)-4-(isopropylamino)pyridin-2-yl)-1H-pyrazolo[3,4-b]pyridine-5-carbonitrile]

Source: patent US10294229B2, “Heteroaryl substituted aminopyridine compounds” (BRISTOL-MYERS SQUIBB COMPANY, priority 2015, dated 2019)
